Read-outs that look alike come from different tables or passages of the source. Where no end group is shown, it is not given here.
How the values were obtained:
[1] = target: T1, HLA-DRβ1*04:01 (DR4) (Homo sapiens, UniProt P01903+P01911, A100K/A169T/F76Y/I96L/K127E/L162R/M171V/N62H/P40V/Q125Y/R42H/S133A/S149N/S66Y/V115G/V209L/W38E); experiment: biochemical; type: binding
[2] = target: T1, HLA-DRβ1*04:01 (DR4); experiment: biochemical; type: binding; remark: listed apart in the source
[3] = target: HLA-DR4 (Homo sapiens, UniProt P01903+P01911, A100K/A169T/F76Y/I96L/K127E/L162R/M171V/N62H/P40V/Q125Y/R42H/S133A/S149N/S66Y/V115G/V209L/W38E); details: binding to HLA-DR4, previously reported; read-out: IC50, competition binding assay; cited from earlier work
[4] = IC50, competition binding assay

Compound Ac-QNSASTEWSPCSVT-NH2 [L335A] has an IC50 [1] of 68.4 µM.

Ac-QNSLSAEWSPCSVT-NH2 [T337A] showed an IC50 [1] of 1.3 µM.

Ac-QNALSTEWSPCSVT-NH2 [S334A] gave an IC50 [1] of 1.14 µM.

Work on Ac-STEWSPCS-NH2 [QN-336-343] yielded an IC50 [1] of 6740 µM.

With Ac-SLSTEWSPCSVT-NH2 [QN-334-345] the IC50 [1] was 2.82 µM.

Ac-QNSLSTEWSACSVT-NH2 [P341A] showed an IC50 [1] of 7.75 µM.

Ac-QNSLSTEWSPCS-NH2 [QN-332-343] showed an IC50 [1] of 5.58 µM.

Compound Ac-QNSLSTEWSPCAVT-NH2 [S343A] has an IC50 [1] of 0.7 µM.

Compound Ac-QNSLSTEWAPCSVT-NH2 [S340A] has an IC50 [1] of 24.6 µM.

Ac-QASLSTEWSPCSVT-NH2 [N333A] showed an IC50 [1] of 2.65 µM.

Compound Ac-QNSLSTEWSPCSAT-NH2 [V344A] has an IC50 [1] of 0.44 µM.

For Ac-QNSLSTAWSPCSVT-NH2 [E338A], the IC50 [1] was 3.4 µM.

QNSLSTEWSPCSVT [QNT-5] gave a Kd ([2]; apparent equilibrium binding affinity, […], DR-ELISA, read-out: Kd (nM) DM+) of 714.1 ± 3.9 nM, a Kd ([2]; apparent equilibrium binding affinity, […], DR-ELISA, read-out: Kd (nM) DM-) of 504 ± 86.2 nM and an IC50 ([1]; IC50 (quoted from Table 2)) of roughly 0.025 µM. For the same compound, the IC50 [1, 4] was roughly 1.7 µM and the IC50 ([1]; IC50 range values (95% C.I.)) was 1.53 to 1.85 µM.

In the case of SLSTEWSPCSV [T*-5], the IC50 [3] is given as 0.9 µM.

In the case of `CC(C)[C@H](NC(=O)[C@H](CC(N)=O)NC(=O)[C@@H]1CCCN1C(=O)[C@H](CC(N)=O)NC(=O)[C@H](C)NC(=O)[C@H](CC(N)=O)NC(=O)[C@@H]1CCCN1C(=O)[C@H](CC(=O)O)NC(=O)[C@@H](NC(=O)[C@H](CC(N)=O)NC(=O)[C@@H]1CCCN1C(=O)[C@H](CC(N)=O)NC(=O)[C@H](C)NC(=O)[C@H](CC(N)=O)NC(=O)[C@@H]1CCCN1C(=O)[C@@H](N)CC(=O)O)C(C)C)C(=O)O` [T1, reference compound], the IC50 ([1]; IC50, binding to DRβ1*04:01) is reported as roughly 18 µM.

Ac-LSTEWSPCS-NH2 [QN-335-343] showed an IC50 [1] of 75.8 µM.

Compound Ac-QNSLSTEASPCSVT-NH2 [W339A] has an IC50 [1] of 1.42 µM.

Ac-QNSLSTEWSPCSVA-NH2 [T345A] showed an IC50 [1] of 0.71 µM.

Work on QNSYSTEWSPCSVT [QNT-Y] yielded a Kd ([2]; Kd (nM) DM+) of 35.7 ± 20.5 nM, a Kd ([2]; Kd (nM) DM-) of 25.5 ± 10.7 nM and an IC50 ([1]; IC50 (quoted from Table 2)) of roughly 0.5 µM. It also gave an IC50 [1, 4] of roughly 0.13 µM and an IC50 ([1]; IC50 range values (95% C.I.)) of 0.124 to 0.14 µM.

Work on Ac-ANSLSTEWSPCSVT-NH2 [Q332A] yielded an IC50 [1] of 1.19 µM.

With Ac-QNSLATEWSPCSVT-NH2 [S336A] the IC50 [1] was 0.91 µM.

Work on Ac-QNSLSTEWSPASVT-NH2 [C342A] yielded an IC50 [1] of 0.73 µM.
